Data: patent US11285127B2, “Compositions and methods for lowering triglycerides without raising LDL-C levels in a subject on concomitant statin therapy” (Amarin Pharmaceuticals Ireland Limited, priority 2013, dated 2022)

Tested on: patients with fasting triglyceride levels >200 mg/dl and <500 mg/dl despite statin therapy
Assay: 12-week study: lipid profile (TC, LDL-C, HDL-C, non-HDL-C, VLDL-C, VLDL-TG, RLP-C)
Format: in vivo, human
Conditions: for Non-HDL-C, Diff from pbo (Hodges-Lehmann median difference) / Non-HDL-C, EOT (Week 12 endpoint) median / LDL-C Median % chg from BL / LDL-C, Diff from pbo (Hodges-Lehmann median difference) / LDL-C, EOT (Week 12 endpoint) median / Non-HDL-C Median % chg from BL / LDL-C Diff from pbo (median % chg, Hodges-Lehmann) / LDL-C EOT Median / Non-HDL-C Diff from pbo (median % chg, Hodges-Lehmann) / Non-HDL-C EOT Median: AMR 101 4 g + statin
Description: Parameters (a)-(z) can be measured in accordance with any clinically acceptable methodology. For example, triglycerides, total cholesterol, HDL-C and fasting blood sugar can be sample from serum and analyzed using standard photometry techniques. VLDL-TG, LDL-C and VLDL-C can be calculated or determined using serum lipoprotein fractionation by preparative ultracentrifugation and subsequent quantitative analysis by refractometry or by analytic ultracentrifugal methodology. Apo A1, Apo B and hsCRP can be determined from serum using standard nephelometry techniques. Lipoprotein (a) can be determined from serum using standard turbidimetric immunoassay techniques. LDL particle number and particle size can be determined using nuclear magnetic resonance (NMR) spectrometry. Remnants lipoproteins and LDL-phospholipase A2 can be determined from EDTA plasma or serum and serum, respectively, using enzymatic immunoseparation techniques. Oxidized LDL, intercellular adhesion molecule-1 and interleukin-2 levels can be determined from serum using standard enzyme immunoassay techniques. These techniques are described in detail in standard textbooks, for example Tietz Fundamentals of Clinical Chemistry, 6th Ed. (Burtis, Ashwood and Borter Eds.), WB Saunders Company.
A multi-center, placebo-controlled, randomized, double-blind, 12-week study was performed to evaluate the efficacy and safety of >96% E-EPA in patients with fasting triglyceride levels >200 mg/dl and <500 mg/dl despite statin therapy (the mean of two qualifying entry values needed to be >185 mg/dl and at least one of the values needed to be >200 mg/dl). The primary objective of the study was to determine the efficacy of >96% E-EPA 2 g daily and 4 g daily, compared to placebo, in lowering fasting TG levels in patients with high risk for cardiovascular disease and with fasting TG levels 200 mg/dl and <500 mg/dl, despite treatment to LDL-C goal on statin therapy.
The secondary objectives of this study were the following: • 1. To determine the safety and tolerability of >96% E-EPA 2 g daily and 4 g daily; • 2. To determine the effect of >96% E-EPA on lipid and apolipoprotein profiles including total cholesterol (TC), non-high-density lipoprotein cholesterol (non-HDL-C), low density lipoprotein cholesterol (LDL-C), high density lipoprotein cholesterol (HDL-C), and […]; • 3. To determine the effect of >96% E-EPA on lipoprotein associated phospholipase A2 (Lp-PLA2) from baseline to week 12; • 4. To determine the effect of >96% E-EPA on low-density lipoprotein (LDL) particle number and size; • 5. To determine the effect of >96% E-EPA on oxidized LDL; • 6. To determine the effect of >96% E-EPA on fasting plasma glucose (FPG) and hemoglobin A1c (HbA1c); • 7. To determine the effect of >96% E-EPA on insulin resistance; • 8. To determine the effect of >96% E-EPA on high-sensitivity C-reactive protein (hsCRP); • 9. To determine the effects of >96% E-EPA 2 g daily and 4 g daily on the incorporation of fatty acids into red blood cell membranes and into plasma phospholipids; • 10. To explore the relationship between baseline fasting TG levels and the reduction in fasting TG levels; and • 11. To explore the relationship between changes of fatty acid concentrations in plasma and red blood cell membranes, and the reduction in fasting TG levels.
The primary efficacy variable for the double-blind treatment period was percent change in TG from baseline to Week 12 endpoint. […]

[1] = Diabetes No, Week 12 endpoint, MITT
[2] = Diabetes Yes, Week 12 endpoint, MITT
[3] = Non-statin Washout No, Week 12 endpoint, MITT
[4] = Non-statin Washout Yes, Week 12 endpoint, MITT
[5] = baseline TG tertile Highest (≥289.5 mg/dL), Week 12 endpoint, MITT
[6] = baseline TG tertile Lowest (<230.5 mg/dL), Week 12 endpoint, MITT
[7] = baseline TG tertile Middle (230.5 to <289.5 mg/dL), Week 12 endpoint, MITT
[8] = AMR101 4 g/d + statin, Week 12 endpoint, MITT
[9] = AMR101 4 g/d + statin, percent change from baseline to Week 12 endpoint, MITT
[10] = IPE 4 g/day (n = 216), 12 weeks, patients with lipoprotein data
[11] = IPE 4 g/day vs placebo, 12 weeks, Hodges-Lehmann median

CC/C=C\C/C=C\C/C=C\C/C=C\C/C=C\CCCC(=O)OCC [AMR101, ethyl eicosapentaenoate]
Non-HDL-C, Diff from pbo (Hodges-Lehmann median difference) (Atorva subgroup, MITT): −13.5
Non-HDL-C, EOT (Week 12 endpoint) median (Atorva subgroup, MITT): 122.0
LDL-C Median % chg from BL (Rosuva subgroup, MITT): −3.8%
LDL-C, Diff from pbo (Hodges-Lehmann median difference) (Rosuva subgroup, MITT): −14.8
LDL-C, EOT (Week 12 endpoint) median (Rosuva subgroup, MITT): 82.5
Non-HDL-C Median % chg from BL (Rosuva subgroup, MITT): −5.5%
Non-HDL-C, Diff from pbo (Hodges-Lehmann median difference) (Rosuva subgroup, MITT): −20.0
Non-HDL-C, EOT (Week 12 endpoint) median (Rosuva subgroup, MITT): 118.0
LDL-C Median % chg from BL (Simva subgroup, MITT): 1.5%
LDL-C, Diff from pbo (Hodges-Lehmann median difference) (Simva subgroup, MITT): −5.4
LDL-C, EOT (Week 12 endpoint) median (Simva subgroup, MITT): 83.0
Non-HDL-C Median % chg from BL (Simva subgroup, MITT): −4.3%
Non-HDL-C, Diff from pbo (Hodges-Lehmann median difference) (Simva subgroup, MITT): −11.1
Non-HDL-C, EOT (Week 12 endpoint) median (Simva subgroup, MITT): 125.0
LDL-C Median % chg from BL (Statin Potency High, MITT): 5.4%
LDL-C, Diff from pbo (Hodges-Lehmann median difference) (Statin Potency High, MITT): −2.9
LDL-C, EOT (Week 12 endpoint) median (Statin Potency High, MITT): 82.0
Non-HDL-C Median % chg from BL (Statin Potency High, MITT): −6.3%
Non-HDL-C, Diff from pbo (Hodges-Lehmann median difference) (Statin Potency High, MITT): −15.8
Non-HDL-C, EOT (Week 12 endpoint) median (Statin Potency High, MITT): 118
LDL-C Median % chg from BL (Statin Potency Low, MITT): 7.8%
LDL-C, Diff from pbo (Hodges-Lehmann median difference) (Statin Potency Low, MITT): 12.4
LDL-C, EOT (Week 12 endpoint) median (Statin Potency Low, MITT): 84.5
Non-HDL-C Median % chg from BL (Statin Potency Low, MITT): −1.4%
Non-HDL-C, Diff from pbo (Hodges-Lehmann median difference) (Statin Potency Low, MITT): 2.4
Non-HDL-C, EOT (Week 12 endpoint) median (Statin Potency Low, MITT): 131
LDL-C Median % chg from BL (Statin Potency Medium, MITT): −2.2%
LDL-C, Diff from pbo (Hodges-Lehmann median difference) (Statin Potency Medium, MITT): −10.0
LDL-C, EOT (Week 12 endpoint) median (Statin Potency Medium, MITT): 84.0
Non-HDL-C Median % chg from BL (Statin Potency Medium, MITT): −4.3%
Non-HDL-C, Diff from pbo (Hodges-Lehmann median difference) (Statin Potency Medium, MITT): −13.9
Non-HDL-C, EOT (Week 12 endpoint) median (Statin Potency Medium, MITT): 124
LDL-C Diff from pbo (median % chg, Hodges-Lehmann) [1]: −5.3%
LDL-C EOT Median [1]: 83.5 mg/dL
LDL-C Median % chg from BL [1]: 1.4%
Non-HDL-C Diff from pbo (median % chg, Hodges-Lehmann) [1]: −11.3′ %
Non-HDL-C EOT Median [1]: 126 mg/dL
Non-HDL-C Median % chg from BL [1]: −0.9%
LDL-C Diff from pbo (median % chg, Hodges-Lehmann) [2]: −6.3%
LDL-C EOT Median [2]: 83.0 mg/dL
LDL-C Median % chg from BL [2]: 2.0%
Non-HDL-C Diff from pbo (median % chg, Hodges-Lehmann) [2]: −14.4%
Non-HDL-C EOT Median [2]: 121 mg/dL
Non-HDL-C Median % chg from BL [2]: −5.5%
LDL-C Diff from pbo (median % chg, Hodges-Lehmann) [3]: −5.1%
LDL-C EOT Median [3]: 83.5 mg/dL
LDL-C Median % chg from BL [3]: 2.5%
Non-HDL-C Diff from pbo (median % chg, Hodges-Lehmann) [3]: −4.8%
Non-HDL-C EOT Median [3]: 122 mg/dL
Non-HDL-C Median % chg from BL [3]: −4.9%
LDL-C Diff from pbo (median % chg, Hodges-Lehmann) [4]: −7.5%
LDL-C EOT Median [4]: 80.0 mg/dL
LDL-C Median % chg from BL [4]: −1.4%
Non-HDL-C Diff from pbo (median % chg, Hodges-Lehmann) [4]: −14.4%
Non-HDL-C EOT Median [4]: 124 mg/dL
Non-HDL-C Median % chg from BL [4]: −5.4%
LDL-C Diff from pbo (median % chg, Hodges-Lehmann) [5]: 0%
LDL-C EOT Median [5]: 83.0
LDL-C Median % chg from BL [5]: 4.8%
Non-HDL-C Diff from pbo (median % chg, Hodges-Lehmann) [5]: −17.6%
Non-HDL-C EOT Median [5]: 130
Non-HDL-C Median % chg from BL [5]: −6.9%
LDL-C Diff from pbo (median % chg, Hodges-Lehmann) [6]: −12.2%
LDL-C EOT Median [6]: 83.0
LDL-C Median % chg from BL [6]: −3.9%
Non-HDL-C Diff from pbo (median % chg, Hodges-Lehmann) [6]: −13.8%
Non-HDL-C EOT Median [6]: 118
Non-HDL-C Median % chg from BL [6]: −2.0%
LDL-C Diff from pbo (median % chg, Hodges-Lehmann) [7]: −5.8%
LDL-C EOT Median [7]: 82.5
LDL-C Median % chg from BL [7]: 2.1%
Non-HDL-C Diff from pbo (median % chg, Hodges-Lehmann) [7]: −9.5%
Non-HDL-C EOT Median [7]: 124
Non-HDL-C Median % chg from BL [7]: −4.0%
HDL-C Week 12 EP Median (IQR) (AMR101 4 g/d + statin, MITT): 37.0 (13.0) mg/dL
LDL-C Week 12 EP Median (IQR) (AMR101 4 g/d + statin, MITT): 83.0 (31.0) mg/dL
Non-HDL-C Week 12 EP Median (IQR) (AMR101 4 g/d + statin, MITT): 122.0 (39.0) mg/dL
RLP-C Week 12 EP Median (IQR) (AMR101 4 g/d + statin, MITT): 10.0 (6.0) mg/dL
Total cholesterol Week 12 EP Median (IQR) (AMR101 4 g/d + statin, MITT): 162.0 (38.0) mg/dL
VLDL-C Week 12 EP Median (IQR) (AMR101 4 g/d + statin, MITT): 38.0 (22.0) mg/dL
VLDL-TG Week 12 EP Median (IQR) (AMR101 4 g/d + statin, MITT): 147.0 (88.0) mg/dL
HDL-C Percent change from Baseline Median (IQR) [8]: −1.0 (18.2) %
LDL-C Percent change from Baseline Median (IQR) [8]: 1.5 (26.6) %
Non-HDL-C Percent change from Baseline Median (IQR) [8]: −5.0 (21.3) %
RLP-C Percent change from Baseline Median (IQR) [8]: −24.0 (45.5) %
Total cholesterol Percent change from Baseline Median (IQR) [8]: −3.2 (16.8) %
VLDL-C Percent change from Baseline Median (IQR) [8]: −12.1 (47.9) %
VLDL-TG Percent change from Baseline Median (IQR) [8]: −19.2 (46.2) %
HDL-C Difference from placebo Estimated median [9]: −4.5%
LDL-C Difference from placebo Estimated median [9]: −6.2%
Non-HDL-C Difference from placebo Estimated median [9]: −13.6%
RLP-C Difference from placebo Estimated median [9]: −25.8%
Total cholesterol Difference from placebo Estimated median [9]: −12.0%
VLDL-C Difference from placebo Estimated median [9]: −24.4%
VLDL-TG Difference from placebo Estimated median [9]: −26.5%
HDL-C, Change From Baseline, % (median) [10]: −2.2%
HDL-C, End of Treatment (median) [10]: 36.5 mg/dL
LDL-C, Change From Baseline, % (median) [10]: 2.1%
LDL-C, End of Treatment (median) [10]: 83.0 mg/dL
Non-HDL-C, Change From Baseline, % (median) [10]: −5.1%
Non-HDL-C, End of Treatment (median) [10]: 122.0 mg/dL
HDL-C, Median Change From Baseline IPE 4 g/day vs Placebo, % [11]: −5.0%
LDL-C, Median Change From Baseline IPE 4 g/day vs Placebo, % [11]: −5.2%
Non-HDL-C, Median Change From Baseline IPE 4 g/day vs Placebo, % [11]: −13.5%
